How the values were obtained:
[1] = system: scopolamine-induced amnesia; assay: Passive avoidance memory test (scopolamine-induced amnesia) in rats; assay type: in vivo; conditions: for Latency to enter the dark compartment: scopolamine, measured 48 h after training, carrier 24±12
Experimental: Example 31 was evaluated in rats in a memory test, the passive avoidance test (Chopin P, Briley M. Effects of four non-cholinergic cognitive enhancers in comparison with tacrine and galanthamine on scopolamine-induced amnesia in rats, Psychopharmacology (Berl), 1992; 106:26-30). This test consists of teaching a rat not to enter a dark compartment (its naturally preferred place) where it had previously received an electric shock (0.8 mA). The animal's reticence (the time lapse or “latency” to enter the dark compartment) measured 48 h after its training is considered as an index of its explicit-declarative memory. Latency greatly […] when an amnesic product such as scopolamine is administered shortly after receiving the first shock. A product with promnesic properties opposes the effects of scopolamine.

[2] = system: MK-801-induced hyperactivity; assay: MK-801-induced hyperactivity test in mice; assay type: in vivo; conditions: Mus musculus
[3] = molecular target: T1, dopaminergic receptor D2 (Homo sapiens, UniProt P14416); assay: Inhibition constants (Ki) for dopaminergic receptor D2 in recombinant cells; assay type: binding; conditions: read-out: pKi D2 (converted)
T1 construct: expressed in transfected cells; host or cells: recombinant human cells (so in the source)
T1 sequence (P14416 whole entry): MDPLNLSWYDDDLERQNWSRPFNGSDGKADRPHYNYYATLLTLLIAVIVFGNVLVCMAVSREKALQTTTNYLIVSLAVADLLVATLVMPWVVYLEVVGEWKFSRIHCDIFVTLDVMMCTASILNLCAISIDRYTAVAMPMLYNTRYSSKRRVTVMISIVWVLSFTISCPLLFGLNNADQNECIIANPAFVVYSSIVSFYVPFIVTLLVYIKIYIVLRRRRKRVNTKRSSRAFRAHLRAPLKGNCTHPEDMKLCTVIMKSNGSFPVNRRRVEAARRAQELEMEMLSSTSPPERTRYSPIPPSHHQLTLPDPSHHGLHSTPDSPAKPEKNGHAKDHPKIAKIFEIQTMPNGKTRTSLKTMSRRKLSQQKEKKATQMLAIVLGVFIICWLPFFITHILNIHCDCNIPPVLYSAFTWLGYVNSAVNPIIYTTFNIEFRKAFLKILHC
Experimental: (§1) Compounds of formula 1 have been evaluated in vitro as ligands for dopaminergic and noradrenergic receptors and modulators of the activity of these receptors according to the invention in recombinant human cells expressing the receptors. The inhibition constants (Ki) were measured for dopaminergic receptors D2 and D3, and for adrenergic receptors alpha2A, alpha2B and alpha2C, according to the described methods (Newman-Tancredi A, Assie M B, Martel J C, Cosi C, Slot L B, Palmier C, Rauly-Lestienne I, Colpaert F, Vacher B, Cussac D. F15063, a potential antipsychotic with D2/D3 antagonist, 5-HT 1A agonist and D4 partial agonist properties. I. In vitro receptor affinity and efficacy profile. Br J Pharmacol., 2007, 151:237-252). The intrinsic activity of the products for the D2 receptor was measured (Bruins Slot L A, De Vries L, Newman-Tancredi A, Cussac D. Differential profile of antipsychotics at serotonin 5-HT1A and dopamine D2S receptors coupled to extracellular signal-regulated kinase. Eur J Pharmacol, 2006, 534; 63-70. The results obtained for some of these compounds are presented in the following table.

[4] = molecular target: T2, adrenergic receptor alpha2B (Homo sapiens, UniProt P18089); assay: Inhibition constants (Ki) for adrenergic receptor alpha2B in recombinant cells; assay type: binding; conditions: read-out: pKi α2B (converted)
T2 construct: expressed in transfected cells; host or cells: recombinant human cells (so in the source)
T2 sequence (P18089 1-450): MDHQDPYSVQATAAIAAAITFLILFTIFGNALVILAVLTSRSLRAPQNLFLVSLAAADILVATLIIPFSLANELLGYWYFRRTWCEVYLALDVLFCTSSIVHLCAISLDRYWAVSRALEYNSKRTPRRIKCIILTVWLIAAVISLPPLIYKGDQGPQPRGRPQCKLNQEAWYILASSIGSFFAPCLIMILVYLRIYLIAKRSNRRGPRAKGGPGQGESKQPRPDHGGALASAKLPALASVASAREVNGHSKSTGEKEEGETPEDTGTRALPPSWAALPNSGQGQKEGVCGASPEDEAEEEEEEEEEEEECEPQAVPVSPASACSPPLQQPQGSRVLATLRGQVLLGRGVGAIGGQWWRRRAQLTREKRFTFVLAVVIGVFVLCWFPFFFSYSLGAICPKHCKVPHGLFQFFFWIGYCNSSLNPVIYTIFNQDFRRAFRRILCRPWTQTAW
Experimental: as §1

[5] = molecular target: T3, adrenergic receptor alpha2A (Homo sapiens, UniProt P08913); assay: Inhibition constants (Ki) for adrenergic receptor alpha2A in recombinant cells; assay type: binding; conditions: read-out: pKi α2A (converted)
T3 construct: expressed in transfected cells; host or cells: recombinant human cells (so in the source)
T3 sequence (P08913 1-465): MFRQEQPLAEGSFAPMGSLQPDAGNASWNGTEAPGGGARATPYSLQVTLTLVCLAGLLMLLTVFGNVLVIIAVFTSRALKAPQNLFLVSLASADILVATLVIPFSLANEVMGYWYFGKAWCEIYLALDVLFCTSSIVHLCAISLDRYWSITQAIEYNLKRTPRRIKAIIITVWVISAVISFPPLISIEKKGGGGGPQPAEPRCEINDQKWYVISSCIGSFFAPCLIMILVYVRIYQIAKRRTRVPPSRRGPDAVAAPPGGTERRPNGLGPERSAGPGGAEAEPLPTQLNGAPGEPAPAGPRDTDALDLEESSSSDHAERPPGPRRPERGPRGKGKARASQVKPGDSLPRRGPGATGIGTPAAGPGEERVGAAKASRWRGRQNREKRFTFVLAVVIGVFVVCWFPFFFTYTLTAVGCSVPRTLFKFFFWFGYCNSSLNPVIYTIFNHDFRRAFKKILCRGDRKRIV
Experimental: as §1

[6] = molecular target: T4, dopaminergic receptor D3 (Homo sapiens, UniProt P35462); assay: Inhibition constants (Ki) for dopaminergic receptor D3 in recombinant cells; assay type: binding; conditions: read-out: pKi D3 (converted)
T4 construct: expressed in transfected cells; host or cells: recombinant human cells (so in the source)
T4 sequence (P35462 whole entry): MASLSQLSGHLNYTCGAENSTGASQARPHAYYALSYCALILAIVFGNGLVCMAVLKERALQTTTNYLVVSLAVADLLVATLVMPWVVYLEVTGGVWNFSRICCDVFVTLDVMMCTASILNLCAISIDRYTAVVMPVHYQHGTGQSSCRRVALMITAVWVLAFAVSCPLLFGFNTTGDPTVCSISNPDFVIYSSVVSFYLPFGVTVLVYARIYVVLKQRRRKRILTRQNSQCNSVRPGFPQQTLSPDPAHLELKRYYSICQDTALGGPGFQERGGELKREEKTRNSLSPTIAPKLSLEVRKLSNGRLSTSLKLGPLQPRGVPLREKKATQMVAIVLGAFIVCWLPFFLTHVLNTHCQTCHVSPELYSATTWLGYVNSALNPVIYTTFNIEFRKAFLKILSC
Experimental: as §1

[7] = molecular target: T5, adrenergic receptor alpha2C (Homo sapiens, UniProt P18825); assay: Inhibition constants (Ki) for adrenergic receptor alpha2C in recombinant cells; assay type: binding; conditions: read-out: pKi α2C (converted)
T5 construct: expressed in transfected cells; host or cells: recombinant human cells (so in the source)
T5 sequence (P18825 1-462): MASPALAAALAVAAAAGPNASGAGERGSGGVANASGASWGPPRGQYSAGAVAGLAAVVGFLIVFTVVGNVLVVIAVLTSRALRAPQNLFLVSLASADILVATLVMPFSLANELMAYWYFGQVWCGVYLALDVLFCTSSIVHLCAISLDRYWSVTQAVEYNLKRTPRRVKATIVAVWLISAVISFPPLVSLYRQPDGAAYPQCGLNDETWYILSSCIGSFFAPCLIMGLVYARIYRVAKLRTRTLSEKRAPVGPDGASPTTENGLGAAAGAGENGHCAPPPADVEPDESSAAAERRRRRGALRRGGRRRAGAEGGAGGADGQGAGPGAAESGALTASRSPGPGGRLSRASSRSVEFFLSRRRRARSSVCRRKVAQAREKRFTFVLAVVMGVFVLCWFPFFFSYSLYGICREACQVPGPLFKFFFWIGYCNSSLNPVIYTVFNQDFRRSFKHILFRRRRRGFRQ
Experimental: as §1

[8] = molecular target: T6, D2 receptor (Homo sapiens, UniProt P14416); assay: Intrinsic (agonist) activity at the D2 receptor; assay type: cell-based
T6 construct: expressed in transfected cells; host or cells: recombinant human cells (so in the source)
T6 sequence (P14416 1-414 isoform P14416-2): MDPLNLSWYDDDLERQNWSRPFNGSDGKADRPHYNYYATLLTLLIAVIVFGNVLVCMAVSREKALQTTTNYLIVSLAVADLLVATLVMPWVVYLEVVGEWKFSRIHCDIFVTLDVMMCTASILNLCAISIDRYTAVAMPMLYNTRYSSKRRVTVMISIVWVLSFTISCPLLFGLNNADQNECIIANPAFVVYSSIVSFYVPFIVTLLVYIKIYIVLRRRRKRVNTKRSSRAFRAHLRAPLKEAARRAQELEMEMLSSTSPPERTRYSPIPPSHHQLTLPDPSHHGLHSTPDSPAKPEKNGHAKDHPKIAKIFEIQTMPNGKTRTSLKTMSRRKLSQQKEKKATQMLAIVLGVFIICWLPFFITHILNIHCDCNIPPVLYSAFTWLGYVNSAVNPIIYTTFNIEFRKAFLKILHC
Experimental: The prior art mentions, for benzodioxane-piperidine derivatives bearing an amide, a urea or an imidazolidinone, as non-selective alpha2-antagonists (WO 97/28157, WO 98/02435); some of these products also have a weak affinity for the D2 dopaminergic receptor (T. Imbert, J. Med. Chem, 2000, 43: 3653-3664). […] Activity as a D2 and D3 receptor agonist was determined according to the described methods (Bruins Slot L A, De Vries L, Newman-Tancredi A, Cussac D. Differential profile of antipsychotics at serotonin 5-HT1A and dopamine D2S receptors coupled to extracellular signal-regulated kinase. Eur J Pharmacol, 2006, 534; 63-70; Bruins Slot L A, Palmier C, Tardif S, Cussac D. Action of novel antipsychotics at human dopamine D3 receptors coupled to G protein and ERK1/2 activation. Neuropharmacology, 2007, 53: 232-241) for the following compounds, such as described in WO 97/28157 and WO 98/02435; • 1-benzyl-3-(2-(1-((2,3-dihydrobenzo[b][1,4]dioxin-2-yl)methyl)piperidin-4-yl)ethyl)imidazolidin-2-one • 1-(2-(1-((2,3-dihydrobenzo[b][1,4]dioxin-2-yl)methyl)piperidin-4-yl)ethyl)-3-methylimidazolidin-2-one • 1-(2,6-dichlorophenyl)-3-(2-(1-((2,3-dihydrobenzo[b][1,4]dioxin-2-yl)methyl)piperidin-4-yl)ethyl)imidazolidin-2-one • 1-(2-(1-((2,3-dihydrobenzo[b][1,4]dioxin-2-yl)methyl)piperidin-4-yl)ethyl)-3-(pyridin-4-yl)imidazolidin-2-one • 3-(2-(1-((2,3-dihydrobenzo[b][1,4]dioxin-2-yl)methyl)piperidin-4-yl)ethyl)-1-phenylimidazolidine-2,4-dione • (S)—N-(2-(1-((2,3-dihydrobenzo[b][1,4]dioxin-2-yl)methyl)piperidin-4-yl)ethyl)-[1,1′-biphenyl]-4-carboxamide • (S)—N-(2-(1-((2,3-dihydrobenzo[b][1,4]dioxin-2-yl)methyl)piperidin-4-yl)ethyl)-4-(1H-pyrrol-1-yl)benzamide • (S)—N-(2-(1-((2,3-dihydrobenzo[b][1,4]dioxin-2-yl)methyl)piperidin-4-yl)ethyl)-4-(pyridin-4-yl)benzamide • (S)—N-(2-(1-((2,3-dihydrobenzo[b][1,4]dioxin-2-yl)methyl)piperidin-4-yl)ethyl)-4-(pyridin-3-yl)benzamide • (S)—N-(2-(1-((2,3-dihydrobenzo[b][1,4]dioxin-2-yl)methyl)piperidin-4-yl)ethyl)-9-oxo-9H-fluorene-1-carboxamide.
as §1

Ki [3] [nM] | Ki [4] [nM] | Ki [5] [nM] | Ki [6] [nM] | Ki [7] [nM] | I.A.: Intrinsic activity on receptor D2 in vitro [8] | Structure (SMILES) | Latency to enter the dark compartment ([1]; dose 0.63 mg/kg) [s] | Latency to enter the dark compartment ([1]; dose 2.5 mg/kg) [s] | ED50 [2] [mg/kg] | Effect on scopolamine-induced amnesia in the passive avoidance test ([1]; doses of 0.16, 0.63, 2.5 and 10 mg/kg)
 |  |  |  |  |  | O=C1OCCN1CCC1CCN(C[C@H]2COc3ccccc3O2)CC1 [Example 1, (S)-3-(2-(1-((2,3-dihydrobenzo[b][1,4]dioxin-2-yl)methyl)piperidin-4-yl)ethyl)oxazolidin-2-one] | 60 ± 21 | 78 ± 22 |  | 
1.17 | 2.95 | 5.13 | 0.525 | 1 | 0 percentage of that of dopamine | Cc1ccc2c(c1)O[C@@H](CN1CCC(CCN3C(=O)OC[C@@H]3Cc3ccccc3)CC1)CO2 [Example 31, (S)-4-benzyl-3-(2-(1-(((S)-7-methyl-2,3-dihydrobenzo[b][1,4]dioxin-2-yl)methyl)piperidin-4-yl)ethyl)oxazolidin-2-one] |  |  | 2.1 | opposed to the effect of scopolamine
1.66 | 4.47 | 5.37 | 0.347 | 0.617 | 0 percentage of that of dopamine | O=C1COCCN1CCC1CCN(C[C@H]2COc3c(F)cc(Cl)cc3O2)CC1 [Example 94, (S)-4-(2-(1-((7-chloro-5-fluoro-2,3-dihydrobenzo[b][1,4]dioxin-2-yl)methyl)piperidin-4-yl)ethyl)morpholin-3-one] |  |  | 0.19 | 

Reference: patent publication US20150336943A1, “NOVEL BENZODIOXANE-PIPERIDINE DERIVATIVES AND THEIR THERAPEUTIC APPLICATIONS FOR TREATING NEUROPSYCHIATRIC DISORDERS” (PIERRE FABRE MEDICAMENT, priority 2013, published 2015)
